This note sets out measurements from ChEMBL document CHEMBL3091417, “Substituted phenyl as a steroid A-ring mimetic: providing agonist activity to a class of arylsulfonamide nonsteroidal glucocorticoid ligands” (Bioorg Med Chem Lett, 2013).

Calls of active or inactive are those of the source. The rule behind the calls is not given here.

Assay [1] deals with T1, Glucocorticoid receptor (Homo sapiens, UniProt P04150).
T1 sequence (P04150 whole entry): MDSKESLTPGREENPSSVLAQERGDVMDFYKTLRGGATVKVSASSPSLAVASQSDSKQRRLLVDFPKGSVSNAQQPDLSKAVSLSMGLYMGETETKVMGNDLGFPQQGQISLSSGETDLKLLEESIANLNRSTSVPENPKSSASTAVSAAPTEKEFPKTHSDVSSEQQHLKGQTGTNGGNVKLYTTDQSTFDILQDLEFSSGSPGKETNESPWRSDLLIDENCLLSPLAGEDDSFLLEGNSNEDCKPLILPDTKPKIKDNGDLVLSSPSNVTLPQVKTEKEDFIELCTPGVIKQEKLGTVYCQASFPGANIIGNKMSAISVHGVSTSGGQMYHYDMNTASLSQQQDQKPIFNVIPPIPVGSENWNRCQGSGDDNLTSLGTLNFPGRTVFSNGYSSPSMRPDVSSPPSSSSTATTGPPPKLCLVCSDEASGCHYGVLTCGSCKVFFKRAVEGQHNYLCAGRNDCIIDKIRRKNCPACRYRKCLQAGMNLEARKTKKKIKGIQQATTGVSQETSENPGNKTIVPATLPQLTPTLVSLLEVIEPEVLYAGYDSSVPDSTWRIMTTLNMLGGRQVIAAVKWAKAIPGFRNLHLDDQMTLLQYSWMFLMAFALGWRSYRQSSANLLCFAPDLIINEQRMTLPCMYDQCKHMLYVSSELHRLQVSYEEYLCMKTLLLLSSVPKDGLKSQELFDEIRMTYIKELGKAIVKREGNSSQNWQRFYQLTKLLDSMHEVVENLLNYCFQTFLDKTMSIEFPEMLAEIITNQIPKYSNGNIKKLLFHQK
Briefly: Inhibition of glucocorticoid receptor (unknown origin) expressed in baculovirus-infected insect cells by fluorescence polarization assay. (In general: In fluorescence polarisation assays a small probe gives low polarisation when free and higher when bound to something large.)

For assay [2], the target named is T2, Mineralocorticoid receptor (Homo sapiens, UniProt P08235).
T2 sequence (P08235 whole entry): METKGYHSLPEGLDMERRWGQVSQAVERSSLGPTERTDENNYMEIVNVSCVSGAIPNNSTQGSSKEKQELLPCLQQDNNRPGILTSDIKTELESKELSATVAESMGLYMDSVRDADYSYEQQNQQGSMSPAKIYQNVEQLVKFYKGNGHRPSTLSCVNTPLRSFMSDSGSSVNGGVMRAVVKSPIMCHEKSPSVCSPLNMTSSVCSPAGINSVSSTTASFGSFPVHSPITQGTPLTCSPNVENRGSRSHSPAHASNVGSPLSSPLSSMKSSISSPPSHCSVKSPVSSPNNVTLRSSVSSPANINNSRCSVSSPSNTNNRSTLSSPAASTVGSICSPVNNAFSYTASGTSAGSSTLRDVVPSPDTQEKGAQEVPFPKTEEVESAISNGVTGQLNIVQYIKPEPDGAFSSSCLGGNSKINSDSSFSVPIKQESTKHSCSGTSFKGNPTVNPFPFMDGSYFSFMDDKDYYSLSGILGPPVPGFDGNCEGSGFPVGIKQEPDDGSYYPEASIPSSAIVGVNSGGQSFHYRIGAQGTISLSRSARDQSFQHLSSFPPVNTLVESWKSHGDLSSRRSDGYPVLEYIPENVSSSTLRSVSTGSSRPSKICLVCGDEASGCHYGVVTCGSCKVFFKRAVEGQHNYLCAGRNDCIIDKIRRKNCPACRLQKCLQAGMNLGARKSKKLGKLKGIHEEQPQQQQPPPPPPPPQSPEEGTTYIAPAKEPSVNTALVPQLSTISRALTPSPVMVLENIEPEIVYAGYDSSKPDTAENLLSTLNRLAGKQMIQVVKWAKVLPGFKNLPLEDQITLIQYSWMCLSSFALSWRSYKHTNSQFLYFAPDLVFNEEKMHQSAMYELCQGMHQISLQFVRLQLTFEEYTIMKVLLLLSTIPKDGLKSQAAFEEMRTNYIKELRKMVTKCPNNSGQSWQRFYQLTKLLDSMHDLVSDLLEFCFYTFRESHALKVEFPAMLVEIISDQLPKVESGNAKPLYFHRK
In words: Inhibition of mineralocorticoid receptor (unknown origin) expressed in baculovirus-infected insect cells by fluorescence polarization assay.

The target of assay [3] is T3, Glucocorticoid receptor (Homo sapiens) (UniProt P04150).
T3 sequence (whole entry): T1 sequence (P04150 whole entry)
In words: Agonist activity at glucocorticoid receptor in human foreskin fibroblasts assessed as IL-1-mediated IL-6 synthesis at […] after 24 hrs relative to dexamethasone.

Assay [4] concerns the target T4, Progesterone receptor (Homo sapiens, UniProt P06401).
T4 sequence (P06401 whole entry): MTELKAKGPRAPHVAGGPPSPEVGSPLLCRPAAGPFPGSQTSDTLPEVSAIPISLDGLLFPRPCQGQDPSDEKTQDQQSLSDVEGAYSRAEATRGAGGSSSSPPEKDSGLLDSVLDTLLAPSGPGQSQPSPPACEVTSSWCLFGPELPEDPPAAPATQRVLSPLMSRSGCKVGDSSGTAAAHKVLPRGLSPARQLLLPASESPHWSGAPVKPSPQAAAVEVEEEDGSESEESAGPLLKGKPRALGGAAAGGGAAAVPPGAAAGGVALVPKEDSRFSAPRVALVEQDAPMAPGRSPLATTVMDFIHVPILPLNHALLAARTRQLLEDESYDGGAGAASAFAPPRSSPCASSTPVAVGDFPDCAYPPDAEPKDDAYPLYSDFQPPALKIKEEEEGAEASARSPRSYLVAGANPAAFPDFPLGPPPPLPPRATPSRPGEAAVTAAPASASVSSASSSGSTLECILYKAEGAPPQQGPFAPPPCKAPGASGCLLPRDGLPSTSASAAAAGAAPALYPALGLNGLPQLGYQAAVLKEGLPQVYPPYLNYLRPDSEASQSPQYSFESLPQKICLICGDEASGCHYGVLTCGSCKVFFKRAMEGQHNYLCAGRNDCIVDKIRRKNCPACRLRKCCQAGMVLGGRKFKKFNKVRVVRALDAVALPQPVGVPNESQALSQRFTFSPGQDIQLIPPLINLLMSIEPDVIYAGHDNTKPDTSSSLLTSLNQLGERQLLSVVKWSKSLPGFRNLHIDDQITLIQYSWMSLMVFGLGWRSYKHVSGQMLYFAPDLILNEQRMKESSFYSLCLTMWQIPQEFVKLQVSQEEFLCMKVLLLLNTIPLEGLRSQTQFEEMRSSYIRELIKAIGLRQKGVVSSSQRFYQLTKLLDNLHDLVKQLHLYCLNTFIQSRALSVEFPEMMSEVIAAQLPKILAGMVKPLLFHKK
In words: Inhibition of progesterone receptor (unknown origin) expressed in baculovirus-infected insect cells by fluorescence polarization assay.

Assay [5] has as its target T1, Glucocorticoid receptor. Briefly: Agonist activity at glucocorticoid receptor in human foreskin fibroblasts assessed as IL-1-mediated IL-6 synthesis after 24 hrs.
For assay [6], the target named is T3, Glucocorticoid receptor (Homo sapiens). In words: Inhibition of glucocorticoid receptor (unknown origin) expressed in baculovirus-infected insect cells up to 10 uM by fluorescence polarization assay.

On to `CCC(Cc1ccc(OC)c(C)c1C)NS(=O)(=O)c1c(C)cc(C)cc1C` (stereo unspecified), for which the 50% inhibitory concentration (IC50) (as a rule, the concentration at which inhibition is half-maximal) is 0.062 µM in assay [1], 0.33 µM in assay [2], 2.1 µM in assay [4] and > 2 µM in assay [5]. Moreover, the Emax – broadly, the maximal effect, on the per cent scale that the assay sets – in assay [3] amounted to 0%.
With `Cc1cc(C)c(S(=O)(=O)NC(C)Cc2ccccc2)c(C)c1` (stereo unspecified), the inhibition result in assay [6] was “inactive”.
On to `CCC(Cc1cc(Cl)cc(Cl)c1)NS(=O)(=O)c1c(C)cc(C)cc1C` (stereo unspecified), for which the IC50 was 0.01 µM in assay [1], 0.15 µM in assay [2], 1.2 µM in assay [4] and > 10 µM in assay [5]. Also, the Emax in assay [3] was found to be 0%.
For `CC[C@@H](Cc1ccc(O)cc1)NS(=O)(=O)c1c(C)cc(C)cc1C` the same measures were 0.12 µM, 5.2 µM, 6.4 µM, > 2 µM and 0%.
With `CCC(Cc1c(C)cccc1C)NS(=O)(=O)c1c(C)cc(C)cc1C` (stereo unspecified), the 50% inhibitory concentration (IC50) is 0.11 µM in assay [1], > 10 µM in assay [2], > 10 µM in assay [4] and > 10 µM in assay [5]. Besides, in assay [3], the Emax was determined as 0%.
`CCC(Cc1ccc(C)cc1)NS(=O)(=O)c1c(C)cc(C)cc1C` (stereo unspecified): the half-maximal inhibitory concentration (IC50) was 0.23 µM in assay [1], 1.1 µM in assay [2], 3.4 µM in assay [4] and > 10 µM in assay [5]. For the same compound, the Emax in assay [3] was 0%.
For the compound `CCC(Cc1cccc2ccccc12)NS(=O)(=O)c1c(C)cc(C)cc1C` (stereo unspecified), the IC50 in assay [1] was 0.01 µM; in assay [2] it was 0.19 µM; in assay [4], 1.5 µM; in assay [5] it was > 10 µM. In assay [3], the Emax stood at 0%.
For `CCC(Cc1cccc(C)c1C)NS(=O)(=O)c1c(C)cc(C)cc1C` (stereo unspecified) the same measures were 0.01 µM, 0.35 µM, 2 µM, > 10 µM and 19%.
In the case of `CCC(Cc1ccc(C)cc1C)NS(=O)(=O)c1c(C)cc(C)cc1C` (stereo unspecified), the IC50 is 0.16 µM in assay [1], 2.4 µM in assay [2], 8.2 µM in assay [4] and > 10 µM in assay [5]. In assay [3], the Emax came to 0%.
As to `CCC(Cc1ccc(O)c2ccccc12)NS(=O)(=O)c1c(C)cc(C)cc1C` (stereo unspecified), the IC50 in assay [1] was 0.003 µM; in assay [2] it was 0.11 µM; in assay [4], 0.21 µM; in assay [5] it was 0.023 µM. The Emax in assay [3] came to 80%.
Take `CCC(Cc1cc(F)cc(F)c1)NS(=O)(=O)c1c(C)cc(C)cc1C` (stereo unspecified): the half-maximal inhibitory concentration (IC50) was 0.048 µM in assay [1], 0.4 µM in assay [2], 3.4 µM in assay [4] and > 10 µM in assay [5]. The Emax in assay [3] is 0%.
For the compound `CC[C@@H](Cc1ccc(O)cc1C)NS(=O)(=O)c1c(C)cc(C)cc1C`, the IC50 was 0.027 µM in assay [1], 1 µM in assay [2], 2.8 µM in assay [4] and > 2 µM in assay [5]. The Emax in assay [3] was 0%.
In the case of `CCC(Cc1cc(C)ccc1C)NS(=O)(=O)c1c(C)cc(C)cc1C` (stereo unspecified), the IC50 was 0.025 µM in assay [1], 0.32 µM in assay [2], > 10 µM in assay [4] and > 10 µM in assay [5]. Further, the Emax in assay [3] was 0%.
Take `CCC(Cc1ccccc1C)NS(=O)(=O)c1c(C)cc(C)cc1C` (stereo unspecified): the IC50 was 0.083 µM in assay [1], 0.7 µM in assay [2], 4.2 µM in assay [4] and > 10 µM in assay [5]. Besides, the Emax in assay [3] was 0%.
`CCC(Cc1cc(C)cc(C)c1)NS(=O)(=O)c1c(C)cc(C)cc1C` (stereo unspecified): the IC50 in assay [1] was 0.011 µM; in assay [2], 0.36 µM; in assay [4], 7.4 µM; in assay [5], > 10 µM. The Emax in assay [3] was found to be 36%.
For `CCC(Cc1ccc2ccccc2c1)NS(=O)(=O)c1c(C)cc(C)cc1C` (stereo unspecified), the IC50 in assay [1] was 0.078 µM; in assay [2], 0.4 µM; in assay [4], 0.72 µM; in assay [5], > 10 µM. In addition, in assay [3], the maximal response (Emax) was 0%.
On to `CCC(Cc1cc(C)c(O)c(C)c1)NS(=O)(=O)c1c(C)cc(C)cc1C` (stereo unspecified), for which the IC50 in assay [1] came out at 0.012 µM; in assay [2], 0.48 µM; in assay [4], 3.5 µM; in assay [5] it was 0.089 µM. The Emax in assay [3] stood at 58%.
Turning to `CCC(Cc1cccc(C)c1)NS(=O)(=O)c1c(C)cc(C)cc1C` (stereo unspecified), the IC50 was 0.023 µM in assay [1], 0.4 µM in assay [2], 5.5 µM in assay [4] and > 10 µM in assay [5]. Also, the Emax in assay [3] was 0%.
For the compound `CCC(Cc1ccc(O)c(C)c1C)NS(=O)(=O)c1c(C)cc(C)cc1C` (racemic), the IC50 was determined as 0.005 µM in assay [1], 0.24 µM in assay [2], 0.86 µM in assay [4] and 0.015 µM in assay [5]. The Emax in assay [3] amounted to 81%.
Consider `CCC(Cc1cc(C)c(OC)c(C)c1)NS(=O)(=O)c1c(C)cc(C)cc1C` (stereo unspecified), for which the IC50 in assay [1] is 0.25 µM; in assay [2] it was 1.4 µM; in assay [4], > 10 µM; in assay [5], > 2 µM. Moreover, in assay [3], the Emax came out at 0%.
As for `CC[C@@H](Cc1ccc(O)c(C)c1C)NS(=O)(=O)c1c(C)cc(C)cc1C`, the IC50 was 0.002 µM in assay [1], 0.27 µM in assay [2], 0.62 µM in assay [4] and 0.022 µM in assay [5]. In addition, the maximum response (Emax) in assay [3] stood at 77%.
For `CC[C@@H](Cc1ccc(O)c(C)c1)NS(=O)(=O)c1c(C)cc(C)cc1C`, in that order: 0.023 µM, 2.3 µM, 2.5 µM, > 2 µM and 0%.
